In patent US11707442B2, “Antibacterial and antifungal compounds” (The General Hospital Corporation, priority 2015, dated 2023):
Values after ≈ are worked out from the molar mass of the structure shown. “Also recorded” adds a separate entry of the source. Read-outs that look alike come from different tables or passages of the source.

Experiments:
S. aureus = experiment: Minimal inhibitory concentration (MIC), broth microdilution; assay type: cell-based, Staphylococcus aureus; settings: for MIC: Staphylococcus aureus
From the text: (§1) Bacterial strains and growth conditions and persister isolation: methicillin-resistant S. aureus (MRSA) strain MW2 BAA-1707, vancomycin-resistant S. aureus strain VRS 1, 11 clinical S. aureus isolates, 8 clinical Enterococcus faecium isolates, Klebsiella pneumoniae WGLW2 (BEI Resources, Manassas, Va., USA), Acinetobacter baumannii ATCC 17978, Pseudomonas aeruginosa PA14, and Enterobacter aerogenes ATCC 13048 were used to test antimicrobial activity (See Table 1a). S. aureus and E. faecium strains were grown in tryptic soy broth (TSB) (BD, Franklin Lakes, N.J., USA) or brain-heart infusion (BHI) broth (BD, Franklin Lakes, N.J., USA), respectively at 37° C. at 225 rpm. K. pneumoniae, A. baumannii, P. aeruginosa, and E. aerogenes were grown in Luria Bertani (LB) broth (BD, Franklin Lakes, N.J., USA).
(§2) To test the bacterial MICs for compounds described herein, the total volume in each well was 100 μl of test compounds and bacterial cells in MH broth. […] The bacterial concentration was adjusted to an initial OD600 of 0.03. After incubation at 35° C. for 18 hrs, the absorbance was measured at 595 nm in accordance with CLSI document M07-A8. The MICs of antibiotics were determined by the standard microdilution method recommended by the Clinical and Laboratory Standards Institute.

E. faecalis = experiment: MIC, broth microdilution; assay type: cell-based, Enterococcus faecalis; settings: result in words
Experimental: To test the bacterial MICs for compounds described herein, the total volume in each well was 100 μl of test compounds and bacterial cells in MH broth. Two-fold serial dilutions were carried out to get compounds in the concentration range 0.0625-64 μg/ml. The bacterial concentration was adjusted to an initial OD600 of 0.03. After incubation at 35° C. for 18 hrs, the absorbance was measured at 595 nm in accordance with CLSI document M07-A8. The MICs of antibiotics were determined by the standard microdilution method recommended by the Clinical and Laboratory Standards Institute.

E. faecium = experiment: MIC, broth microdilution; assay type: cell-based, Enterococcus faecium; settings: for MIC: Enterococcus faecium
From the text: as §1, §2

[1] = test system: C. elegans infected with MRSA strain MW2; assay type: in vivo; settings: result in words
Experimental: The C. elegans-MRSA liquid infection assay has been described (Rajamuthiah et al. Plos One. 2014; 9(2):e89189). In brief, 4,500 glp-4 (bn2); sek-1(km4) L1 hatchlings were grown on SK-HB101 agar plates for 52 hours at the restrictive temperature of 25° C. until animals became sterile young adults and later harvested with M9 buffer. S. aureus MW2 was grown overnight at 37° C. in TSB, first under aerobic conditions and later shifted to anaerobic growth conditions at 37° C. The infection assay was performed in standard 384-well assay plates, in the presence of the compound being tested or 1% dimethyl sulfoxide (DMSO) as a control. Bacteria were added to the wells at a final OD600 of 0.06, followed by the use of a Complex Object Parametric Analyzer and Sorter (COPAS) large particle sorter (Union Biometrica, Holliston, Mass., USA) to transfer 15 adult worms to each well of an assay plate. After 5 days of incubation in a humidified chamber at 25° C., the bacteria and other debris were washed from the wells with a microplate washer and the worms were stained with the vital dye Sytox Orange (Life Technologies). After overnight incubation at 25° C. in a humidified chamber, the plates were imaged using an Image Xpress Micro automated microscope (Molecular Devices, Sunnyvale, Calif., USA), capturing both transmitted light and TRITC (535 nm excitation, 610 nm emission) fluorescent images with a 2× objective. The images from the infection assay were processed using the open source image analysis software CellProfiler and analysis modules as described previously. The ratio of Sytox worm area to bright field worm area, and the resultant percentage survival data, is calculated by the software for each well of the assay plates. The assay was performed in triplicate comparing the survival of worms at various concentrations of drugs.
Killing assays were carried out as described in Methods using S. aureus MRSA MW2 and 10 μg/ml retinoids, 10 μg/ml vancomycin (positive control), or 1% DMSO (negative control) at 25° C. for 5 days. Data are representative of three independent experiments. (B) Chemical structures of synthetic retinoids. (C) Growth of MRSA strain MW2 exposed to the indicated concentrations of compounds was quantified by measuring OD600 after 18 h in tryptic soy broth (TSB). (D) C. elegans infected with MRSA strain MW2 was treated with indicated concentrations of compounds. Percent survival of C. elegans was normalized to C. elegans treated with DMSO. (E-F) MRSA persisters prepared as described in Methods were treated with the indicated concentrations of each retinoid. Viability was measured by serial dilution and plating on TSA plates. The data points on the x-axis are below the level of detection (2×10^2 CFU/ml). (E,F) Results are shown as means±s.d.; n=3.

A. baumannii = experiment: MIC, broth microdilution; assay type: cell-based, Acinetobacter baumannii; settings: Acinetobacter baumannii, ATCC17978, read-out: Minimum inhibitory concentration
From the text: as §1, §2

[2] = test system: S. aureus MW2 (MRSA) in neutropenic mouse thigh; settings: previous study (Conlon 2013); cited from earlier work
K. pneumonia WGLW2 = experiment: MIC, broth microdilution; assay type: cell-based, Klebsiella pneumoniae; settings: Klebsiella pneumoniae, WGLW2, read-out: Minimum inhibitory concentration
From the text: as §1, §2

E. aerogenes ATCC 13048 = experiment: MIC, broth microdilution; assay type: cell-based, Enterobacter aerogenes; settings: Klebsiella aerogenes, ATCC13048, read-out: Minimum inhibitory concentration
From the text: as §1, §2

P. aeruginosa = experiment: MIC, broth microdilution; assay type: cell-based, Pseudomonas aeruginosa; settings: Pseudomonas aeruginosa, PA14, read-out: Minimum inhibitory concentration
From the text: as §1, §2

SMILES: COc1ccc(-c2ccc3cc(C(=O)O)ccc3c2)cc1C12CC3CC(CC(C3)C1)C2 [Adapalene, 6-(4-methoxy-3-tricyclo[3.3.1.13,7]dec-1-ylphenyl)-2-naphthalenecarboxylic acid]
- direct inhibition of MRSA growth (S. aureus; MRSA MW2, result in words): did not inhibit; also recorded: did not have significant antimicrobial activity
- susceptibility of E. faecalis (E. faecalis): not inhibited
- susceptibility of E. faecium (E. faecium; result in words): not inhibited
- rescue of C. elegans from MRSA infection [1]: nor did it protect

SMILES: CN[C@H](CC(C)C)C(=O)N[C@H]1C(=O)N[C@@H](CC(N)=O)C(=O)N[C@H]2C(=O)N[C@H]3C(=O)N[C@H](C(=O)N[C@H](C(=O)O)c4cc(O)cc(O)c4-c4cc3ccc4O)[C@H](O)c3ccc(c(Cl)c3)Oc3cc2cc(c3O[C@@H]2O[C@H](CO)[C@@H](O)[C@H](O)[C@H]2O[C@H]2C[C@](C)(N)[C@H](O)[C@H](C)O2)Oc2ccc(cc2Cl)[C@H]1O [Vancomycin, vancomycin]
- MIC (S. aureus; S. aureus MW2 mutant SP1-8 (graS)): 0.5 µg/mL (≈ 0.345 µM)
- MIC (S. aureus; S. aureus MW2 mutant SP1-48 (graS, manA)): 0.5 µg/mL (≈ 0.345 µM)
- MIC (S. aureus; S. aureus MW2 mutant SP1-74 (graS, manA, MW2474)): 0.5 µg/mL (≈ 0.345 µM)
- MIC (S. aureus; S. aureus MW2 mutant SP1-100 (graS, manA, MW2474)): 0.5 µg/mL (≈ 0.345 µM)
- MIC (S. aureus; S. aureus MW2 mutant SP2-13 (yjbH)): 1 µg/mL (≈ 0.69 µM)
- MIC (S. aureus; S. aureus MW2 mutant SP2-52 (yjbH, dltB)): 0.5 µg/mL (≈ 0.345 µM)
- MIC (S. aureus; S. aureus MW2 mutant SP2-59 (yjbH, dltB, manA)): 0.5 µg/mL (≈ 0.345 µM)
- MIC (S. aureus; S. aureus MW2 mutant SP2-65 (yjbH, dltB, manA, MW1685)): 0.5 µg/mL (≈ 0.345 µM)
- MIC (S. aureus; S. aureus MW2 mutant SP2-100 (yjbH dltB, manA, MW1685)): 0.5 µg/mL (≈ 0.345 µM)
- MIC (S. aureus; S. aureus MW2 serial passage culture SP1-1 (no mutated gene)): 1 µg/mL (≈ 0.69 µM)
- MIC (S. aureus; S. aureus MW2 serial passage culture SP2-1 (no mutated gene)): 1 µg/mL (≈ 0.69 µM)
- MIC (S. aureus; read-out: Drug MIC, Staphylococcus aureus clinical isolate BF1 (Table 5)): 2 µg/mL (≈ 1.38 µM)
- MIC (S. aureus; read-out: Drug MIC, Staphylococcus aureus clinical isolate BF2 (Table 5)): 2 µg/mL (≈ 1.38 µM)
- MIC (S. aureus; read-out: Drug MIC, Staphylococcus aureus clinical isolate BF3 (Table 5)): 4 µg/mL (≈ 2.76 µM)
- MIC (S. aureus; read-out: Drug MIC, Staphylococcus aureus clinical isolate BF4 (Table 5)): 2 µg/mL (≈ 1.38 µM)
- MIC (S. aureus; read-out: Drug MIC, Staphylococcus aureus clinical isolate BF5 (Table 5)): 2 µg/mL (≈ 1.38 µM)
- MIC (S. aureus; read-out: Drug MIC, Staphylococcus aureus clinical isolate BF6 (Table 5)): 2 µg/mL (≈ 1.38 µM)
- MIC (S. aureus; read-out: Drug MIC, Staphylococcus aureus clinical isolate BF7 (Table 5)): 2 µg/mL (≈ 1.38 µM)
- MIC (S. aureus; read-out: Drug MIC, Staphylococcus aureus clinical isolate BF8 (Table 5)): 2 µg/mL (≈ 1.38 µM)
- MIC (S. aureus; read-out: Drug MIC, Staphylococcus aureus clinical isolate BF9 (Table 5)): 2 µg/mL (≈ 1.38 µM)
- MIC (S. aureus; read-out: Drug MIC, Staphylococcus aureus clinical isolate BF10 (Table 5)): 2 µg/mL (≈ 1.38 µM)
- MIC (S. aureus; read-out: Drug MIC, Staphylococcus aureus clinical isolate BF11 (Table 5)): 2 µg/mL (≈ 1.38 µM)
- MIC (S. aureus; read-out: Minimum inhibitory concentration, S. aureus BF1): 1 µg/mL (≈ 0.69 µM)
- MIC (S. aureus; read-out: Minimum inhibitory concentration, S. aureus BF2): 1 µg/mL (≈ 0.69 µM)
- MIC (S. aureus; read-out: Minimum inhibitory concentration, S. aureus BF3): 1 µg/mL (≈ 0.69 µM)
- MIC (S. aureus; read-out: Minimum inhibitory concentration, S. aureus BF4): 0.5 µg/mL (≈ 0.345 µM)
- MIC (S. aureus; read-out: Minimum inhibitory concentration, S. aureus BF5): 0.5 µg/mL (≈ 0.345 µM)
- MIC (S. aureus; read-out: Minimum inhibitory concentration, S. aureus BF6): 0.5 µg/mL (≈ 0.345 µM)
- MIC (S. aureus; read-out: Minimum inhibitory concentration, S. aureus BF7): 0.5 µg/mL (≈ 0.345 µM)
- MIC (S. aureus; read-out: Minimum inhibitory concentration, S. aureus BF8): 0.5 µg/mL (≈ 0.345 µM)
- MIC (S. aureus; read-out: Minimum inhibitory concentration, S. aureus BF9): 0.5 µg/mL (≈ 0.345 µM)
- MIC (S. aureus; read-out: Minimum inhibitory concentration, S. aureus BF10): 0.5 µg/mL (≈ 0.345 µM)
- MIC (S. aureus; read-out: Minimum inhibitory concentration, S. aureus BF11): 1 µg/mL (≈ 0.69 µM)
- MIC (S. aureus; read-out: Minimum inhibitory concentration, S. aureus MW2): 1 µg/mL (≈ 0.69 µM)
- MIC (S. aureus; read-out: Minimum inhibitory concentration, S. aureus VRS1): > 64 µg/mL
- MIC (A. baumannii): > 64 µg/mL
- reduction of MRSA CFUs in the deep-seated mouse thigh infection model [2]: unable to significantly reduce
- MIC (K. pneumonia WGLW2): > 64 µg/mL
- MIC (E. aerogenes ATCC 13048): > 64 µg/mL
- MIC (E. faecium; read-out: Minimum inhibitory concentration, E. faecium C68): 64 µg/mL (≈ 44.2 µM)
- MIC (E. faecium; read-out: Minimum inhibitory concentration, E. faecium D14): 2 µg/mL (≈ 1.38 µM)
- MIC (E. faecium; read-out: Minimum inhibitory concentration, E. faecium D24): 1 µg/mL (≈ 0.69 µM)
- MIC (E. faecium; read-out: Minimum inhibitory concentration, E. faecium D25): 1 µg/mL (≈ 0.69 µM)
- MIC (E. faecium; read-out: Minimum inhibitory concentration, E. faecium D29): 2 µg/mL (≈ 1.38 µM)
- MIC (E. faecium; read-out: Minimum inhibitory concentration, E. faecium E007): 1 µg/mL (≈ 0.69 µM)
- MIC (E. faecium; read-out: Minimum inhibitory concentration, E. faecium WB213): 16 µg/mL (≈ 11 µM)
- MIC (E. faecium; read-out: Minimum inhibitory concentration, E. faecium WC176): 64 µg/mL (≈ 44.2 µM)
- MIC (P. aeruginosa): > 64 µg/mL
